In ChEMBL document CHEMBL5727946, “PD-1/PD-L1 inhibitors” (2020):

The compounds below were run against Programmed cell death protein 1/Programmed cell death 1 ligand 1 (Homo sapiens, UniProt Q15116+Q9NZQ7) (assay: PD-1/PD-L1 & CTLA/CD80 Biochemical Protein-Protein Interaction Assay: Compounds were tested in biochemical protein-protein interaction assays to determine if they can specifically block the interaction between the extracellular domains of PD-1/PD-L1 or CTLA/CD80. Binding of the protein pairs is measured using a bead based Amplified Luminescent Proximity Homogeneous Assay (ALPHA) platform. […] Final protein concentration in the assays were 0.3 nM (His tagged PD-L1), 2.5 nM (biotinylated Fc-PD-1), 1 nM (His tagged CTLA4) and 1 nM (biotinylated CD80).).
Sequence of Programmed cell death protein 1/Programmed cell death 1 ligand 1 (Q15116 whole entry, the tested form may be a part): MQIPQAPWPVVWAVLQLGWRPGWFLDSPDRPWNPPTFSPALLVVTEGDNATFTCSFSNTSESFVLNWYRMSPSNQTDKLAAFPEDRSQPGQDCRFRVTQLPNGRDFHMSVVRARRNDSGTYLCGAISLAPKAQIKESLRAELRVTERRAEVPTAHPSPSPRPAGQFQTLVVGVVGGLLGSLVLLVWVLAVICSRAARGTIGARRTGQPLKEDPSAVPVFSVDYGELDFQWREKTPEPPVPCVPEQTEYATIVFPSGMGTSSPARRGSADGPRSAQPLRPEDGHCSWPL
Sequence of Programmed cell death protein 1/Programmed cell death 1 ligand 1 (Q9NZQ7 whole entry, the tested form may be a part): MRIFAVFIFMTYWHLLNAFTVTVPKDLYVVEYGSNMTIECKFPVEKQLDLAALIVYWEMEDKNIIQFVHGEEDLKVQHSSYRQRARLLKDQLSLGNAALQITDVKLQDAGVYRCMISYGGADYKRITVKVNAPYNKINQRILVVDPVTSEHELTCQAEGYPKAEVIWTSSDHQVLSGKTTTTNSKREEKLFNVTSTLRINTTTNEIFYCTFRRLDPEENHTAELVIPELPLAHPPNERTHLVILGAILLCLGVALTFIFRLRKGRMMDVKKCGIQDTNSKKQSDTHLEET
Assay type: protein-complex assay

`COc1nc(O[C@H]2CCc3c(-c4cccc(-c5cnc([C@@H](C)NC[C@H]6CCC(=O)N6)c(OC)n5)c4Cl)cccc32)c(Cl)cc1CN1CC[C@@H](C(=O)O)C1` and `CCOc1nc(O[C@H]2CCc3c(-c4cccc(-c5ccc(CNC[C@@H]6CCC(=O)N6)c(OC)n5)c4Cl)cccc32)c(Cl)cc1CN1CC[C@H](C(=O)O)C1` cannot be ordered by IC50: no more than 0.064 nM for the first, no more than 0.064 nM for the second.

Going from `CCS(=O)(=O)NC(=O)[C@@H]1CCN(Cc2cc(Cl)c(O[C@H]3CCc4c(-c5cccc(-c6ccc(CNC[C@@H]7CCC(=O)N7)c(OC)n6)c5Cl)cccc43)nc2OC)C1` to `COc1nc(-c2cccc(-c3cccc4c3CC[C@@H]4Oc3nc(OC)c(CN4CC[C@@H](C(=O)NS(C)(=O)=O)C4)cc3Cl)c2Cl)ccc1CNC[C@@H]1CCC(=O)N1`, the IC50 falls from 0.117 nM to no more than 0.064 nM. The second is the more potent here.

Going from `COc1nc(-c2cccc(-c3cccc4c3CC[C@@H]4Oc3nc(OC)c(CN4CC[C@@H](C(=O)NS(C)(=O)=O)C4)cc3Cl)c2Cl)ccc1CN1CC(C)(O)C1` to `COc1nc(-c2cccc(-c3cccc4c3CC[C@@H]4Oc3nc(OC)c(CN4CC(C(=O)NS(C)(=O)=O)C4)cc3Cl)c2Cl)ccc1CN1CC(C)(O)C1`, the IC50 rises from no more than 0.064 nM to 0.088 nM. The first is the more potent here.

First: COc1nc(-c2cccc(-c3cccc4c3CC[C@@H]4Oc3nc(OCc4cncc(Cl)c4)c(CNC4(C(=O)O)CC4)cc3C(F)(F)F)c2Cl)ccc1CNC[C@@H]1CCC(=O)N1
Second: COc1nc(-c2cccc(-c3cccc4c3CC[C@@H]4Oc3nc(OC)c(CNC4(C(=O)O)CC4)cc3Cl)c2Cl)ccc1CNC[C@@H]1CCC(=O)N1
The IC50 of the first is higher: 0.101 nM for the first, no more than 0.064 nM for the second.

`COc1nc(-c2cccc(-c3cccc4c3CC[C@@H]4Oc3nc(OC)c(CN4CC[C@@H](C(=O)NS(=O)(=O)C(F)F)C4)cc3Cl)c2Cl)ccc1CNC[C@@H]1CCC(=O)N1` and `COc1nc(-c2cccc(-c3cccc4c3CC[C@@H]4Oc3nc(OC)c(CN4CC(C(=O)NS(=O)(=O)C(F)F)C4)cc3Cl)c2Cl)ccc1CNC[C@@H]1CCC(=O)N1` are within 1.5-fold of each other in IC50: 0.152 nM for the first, 0.199 nM for the second.

`COc1nc(-c2cccc(-c3cccc4c3CC[C@@H]4Oc3nc(OCc4cncc(C#N)c4)c(CN4CC[C@@H](C(=O)O)C4)cc3Cl)c2Cl)ccc1CNC[C@@H]1CCC(=O)N1` and `COc1nc(-c2cccc(-c3cccc4c3CC[C@@H]4Oc3nc(OCc4cncc(C#N)c4)c(CN4CC[C@H](C(=O)O)C4)cc3Cl)c2Cl)ccc1CNC[C@@H]1CCC(=O)N1` cannot be ordered by IC50: no more than 0.064 nM for the first, no more than 0.064 nM for the second.

`COc1nc(-c2cccc(-c3cccc4c3CC[C@@H]4Oc3nc(OC)c(CN4CCC[C@@H]4C(=O)O)cc3Cl)c2Cl)ccc1CNC[C@@H]1CCC(=O)N1` and `COc1nc(-c2cccc(-c3cccc4c3CC[C@@H]4Oc3nc(OC)c(CN4CCC[C@H]4C(=O)O)cc3Cl)c2Cl)ccc1CNC[C@@H]1CCC(=O)N1` cannot be ordered by IC50: no more than 0.064 nM for the first, no more than 0.064 nM for the second.

`COc1nc(-c2cccc(-c3cccc4c3CC[C@@H]4Oc3nc(OCc4cncc(F)c4)c(CN4CC5(C(=O)O)CCC4CC5)cc3Cl)c2Cl)ccc1CNC[C@@H]1CCC(=O)N1` and `COc1nc(-c2cccc(-c3cccc4c3CC[C@@H]4Oc3nc(OCc4cncc(C#N)c4)c(CN4CC5(C(=O)O)CCC4CC5)cc3Cl)c2Cl)ccc1CNC[C@@H]1CCC(=O)N1` cannot be ordered by IC50: no more than 0.064 nM for the first, no more than 0.064 nM for the second.

`COc1nc(-c2cccc(-c3cccc4c3CC[C@@H]4Oc3nc(OC)c(CNC4(C(=O)O)CCC4)cc3Cl)c2Cl)ccc1CNC[C@@H]1CCC(=O)N1` and `COc1nc(-c2cccc(-c3cccc4c3CC[C@@H]4Oc3nc(OC)c(CNC4(C(=O)O)CCOCC4)cc3Cl)c2Cl)ccc1CNC[C@@H]1CCC(=O)N1` cannot be ordered by IC50: no more than 0.064 nM for the first, no more than 0.064 nM for the second.

`CCOc1nc(O[C@H]2CCc3c(-c4cccc(-c5ccc(CNC[C@@H]6CCC(=O)N6)c(OC)n5)c4Cl)cccc32)c(Cl)cc1CN1CC2(C(=O)O)CCC1CC2` and `COc1nc(-c2cccc(-c3cccc4c3CC[C@@H]4Oc3nc(OCC#N)c(CN4CC5(C(=O)O)CCC4CC5)cc3Cl)c2Cl)ccc1CNC[C@@H]1CCC(=O)N1` cannot be ordered by IC50: no more than 0.064 nM for the first, no more than 0.064 nM for the second.

Compared with `COc1nc(-c2cccc(-c3cccc4c3CC[C@@H]4Oc3nc(OC)c(CN4CC(C(=O)O)C4)cc3Cl)c2Cl)ccc1CN1CC(C)(O)C1`, `CCOC(=O)C1CN(Cc2cc(Cl)c(O[C@H]3CCc4c(-c5cccc(-c6ccc(CNC[C@@H]7CCC(=O)N7)c(OC)n6)c5Cl)cccc43)nc2OC)C1` is higher in IC50: no more than 0.064 nM for the first, 1.99 nM for the second.

Going from `COc1nc(-c2cccc(-c3cccc4c3CC[C@@H]4Oc3nc(OC)c(CN4CC[C@H](C(=O)NS(C)(=O)=O)C4)cc3Cl)c2Cl)ccc1CNC[C@@H]1CCC(=O)N1` to `COc1nc(-c2cccc(-c3cccc4c3CC[C@@H]4Oc3nc(OC)c(CN4CCC[C@@H](C(=O)NS(C)(=O)=O)C4)cc3Cl)c2Cl)ccc1CNC[C@@H]1CCC(=O)N1`, the IC50 rises from no more than 0.064 nM to 0.068 nM. The first is the more potent here.

First: COC(=O)[C@@H]1CCN(Cc2cc(Cl)c(O[C@H]3CCc4c(-c5cccc(-c6ccc(CNC[C@@H]7CCC(=O)N7)c(OC)n6)c5Cl)cccc43)nc2OC)C1
Second: COc1nc(-c2cccc(-c3cccc4c3CC[C@@H]4Oc3nc(OC)c(CN4CCC[C@@]4(C)C(=O)O)cc3Cl)c2Cl)ccc1CNC[C@@H]1CCC(=O)N1
The IC50 of the first is higher: 3.9 nM for the first, no more than 0.064 nM for the second. The second is the more potent here.

First: COc1nc(-c2cccc(-c3cccc4c3CC[C@@H]4Oc3nc(OC)c(CN[C@@H]4CCC[C@@H]4C(=O)O)cc3Cl)c2Cl)ccc1CNC[C@@H]1CCC(=O)N1
Second: COc1nc(-c2cccc(-c3cccc4c3CC[C@@H]4Oc3nc(OC(F)F)c(CN4CC5(C(=O)O)CCC4CC5)cc3Cl)c2Cl)ccc1CNC[C@@H]1CCC(=O)N1
The IC50 of the first is lower: no more than 0.064 nM for the first, 0.169 nM for the second.
